Measurements published in patent publication US8604040B2 (priority 2010, dated 2013).
Where two headings read alike, the source gives them in different places. Marks after values point to notes of the source that are not given here.

Assay: log P by HPLC (EEC Directive 79/831 Annex V.A8)
Assay type: physicochemical
[1] = [a] HPLC, acidic range, pH 2.3, 0.1% aqueous phosphoric acid and acetonitrile
[2] = [c] LC-MS, neutral range, pH 7.8, 0.001 molar aqueous ammonium hydrogencarbonate and acetonitrile
[3] = [b] LC-MS, acidic range, pH 2.7, 0.1% aqueous formic acid and acetonitrile
[4] = HPLC, pH 2.7, given in the preparation examples, read-out: logP (pH2.7)
[5] = HPLC (LC-MS), [b] LC-MS, acidic range, pH 2.7, 0.1% aqueous formic acid and acetonitrile, read-out: log P

SMILES | log P [2] | log P [3] | also measured
Cc1ccccc1CSC(=O)c1cccc(C2CCN(C(=O)Cn3nc(C(F)F)cc3C(F)F)CC2)n1 [Example 133] | 4.41 | – | log P [1]: 4.39
Cc1ccccc1CSC(=O)c1cccc(C2CCN(C(=O)Cn3nc(C(F)(F)F)cc3C)CC2)n1 [Example 56] | 4.58 | 4.57 | –
CC(C)(C)OC(=O)N1CCC(c2cccc(C(=O)O)n2)CC1 [6-[1-(tert-Butoxycarbonyl)piperidin-4-yl]pyridine-2-carboxylic acid] | – | – | chromatographic logP [4]: 1.78
Cc1ccccc1CSC(=O)c1cccc(N2CCN(C(=O)Cn3nc(C(F)(F)F)cc3C)CC2)n1 [Example 145] | 4.55 | 4.52 | –
Cc1cc(C(F)(F)F)nn1CC(=O)N1CCN(c2cccc(C(=O)Oc3ccc4ccccc4c3)n2)CC1 [Example 76] | 4.02 | 4.01 | –
CCCCCC(C)NC(=O)c1cccc(C2CCN(C(=O)Cn3nc(C(F)F)cc3C(F)F)CC2)n1 (stereo not drawn) [Example 83] | 3.95 | 3.99 | –
Cc1cc(C(F)(F)F)nn1CC(=O)N1CCC(c2cccc(C(=O)N(C)Cc3ccc(Cl)cc3Cl)n2)CC1 [Example 13] | 3.85^[b]; 3.85^[c] | 3.85^[b]; 3.85^[c] | –
O=C(Oc1ccc2ccccc2c1)c1cccc(C2CCN(C(=O)Cn3nc(C(F)F)cc3C(F)F)CC2)n1 [Example 111] | – | 3.86^[b] | –
Cc1cc(C(F)(F)F)nn1CC(=O)N1CCC(c2cccc(C(=O)Nc3cccc4ccccc34)n2)CC1 [Example 29] | – | 3.94 | –
Cc1cc(C(F)(F)F)nn1CC(=O)N1CCC(c2cccc(C(=O)Oc3cccc4ccccc34)n2)CC1 [Example 51] | – | 3.97^[b] | –
Cc1cc(C(F)(F)F)nn1CC(=O)N1CCC(c2cccc(C(=O)OCc3c(F)cc(F)cc3F)n2)CC1 [Example 43] | – | 3.69^[b] | –
Cc1ccsc1CNC(=O)c1cccc(C2CCN(C(=O)Cn3nc(C(F)F)cc3C(F)F)CC2)n1 [Example 92] | 3.18 | 3.19 | –
Cc1cc(C(F)(F)F)nn1CC(=O)N1CCC(c2cccc(C(=O)N(C)c3ccccc3Cl)n2)CC1 [Example 10] | 3.2 | 3.18 | –
Cc1cc(C(F)(F)F)nn1CC(=O)N1CCC(c2cccc(C(=O)Nc3ccc4ccccc4c3)n2)CC1 [Example 30] | 4.11 | 4.09 | –
Cc1cc(C(F)(F)F)nn1CC(=O)N1CCC(c2cccc(C(=O)SC3CCCCC3)n2)CC1 [Example 53] | 4.83^[c] | – | –
CCOC(=O)c1cccc(C2=CCN(C(=O)OC(C)(C)C)CC2)n1 [1′-tert-butyl 6-ethyl-3′,6′-dihydro-2,4′-bipyridine-1′,6(2′H)-dicarboxylate] | – | – | logP (pH2.7) (pH 2.7, given in the preparation examples): 3.48
O=C(SCc1c(F)cccc1F)c1cccc(N2CCN(C(=O)Cn3nc(C(F)F)cc3C(F)F)CC2)n1 [Example 125] | 4.14 | – | log P [1]: 4.11
CC(NC(=O)c1cccc(C2CCN(C(=O)Cn3nc(C(F)F)cc3C(F)F)CC2)n1)c1ccccc1Cl (stereo not drawn) [Example 82] | 3.61 | 3.53 | –
Cc1cc(C(F)(F)F)nn1CC(=O)N1CCC(c2cccc(C(=O)N(C)C3CCCCC3)n2)CC1 [Example 11] | 3.18 | 3.15 | –
CCOC(=O)c1cccc(C2CCN(C(=O)Cn3nc(C(F)F)cc3C(F)F)CC2)n1 [Example 131, Ethyl 6-(1-{[3,5-bis(difluoromethyl)-1H-pyrazol-1-yl]acetyl}piperidin-4-yl)pyridine-2-carboxylate] | – | – | chromatographic logP [5]: 2.68; chromatographic logP [4]: 2.68

SMILES | log P [2] | log P [3] | also measured
Cc1cc(C(F)(F)F)nn1CC(=O)N1CCC(c2cccc(C(=O)OC3CCCCC3F)n2)CC1 (stereo not drawn) [Example 116] | – | 3.43^[b] | –
Cc1cc(C(F)(F)F)nn1CC(=O)N1CCC(c2cccc(C(=O)Sc3ccc4ccccc4c3)n2)CC1 [Example 61] | 4.61 | 4.57 | –
CCCCCCCNC(=O)c1cccc(C2CCN(C(=O)Cn3nc(C(F)F)cc3C(F)F)CC2)n1 [Example 85] | 4.05 | 3.96 | –
O=C(OC1CCCCC1)c1cccc(N2CCN(C(=O)Cn3nc(C(F)F)cc3C(F)F)CC2)n1 [Example 119] | 4.65 | – | log P [1]: 4.61
O=C(Oc1cccc2ccccc12)c1cccc(C2CCN(C(=O)Cn3nc(C(F)F)cc3C(F)F)CC2)n1 [Example 110] | – | 3.82^[b] | –
CCOC(=O)c1cccc(C2CCNCC2)n1 [4-[6-(Ethoxycarbonyl)pyridin-2-yl]piperidinium chloride] | – | – | chromatographic logP [4]: 0.55
O=C(O)c1cccc(C2CCN(C(=O)Cn3nc(C(F)F)cc3C(F)F)CC2)n1 [Example 135, 6-(1-{[3,5-Bis(difluoromethyl)-1H-pyrazol-1-yl]acetyl}piperidin-4-yl)pyridine-2-carboxylic acid] | – | – | chromatographic logP [5]: 1.55; chromatographic logP [4]: 1.55
Cc1cc(C(F)(F)F)nn1CC(=O)N1CCC(c2cccc(C(=O)OCc3ccccc3F)n2)CC1 [Example 47] | – | 3.52^[b] | –
CCOC(=O)c1cccc(N2CCN(C(=O)Cn3nc(C(F)F)cc3C(F)F)CC2)n1 [Ethyl 6-(4-{[3,5-bis(difluoromethyl)-1H-pyrazol-1-yl]acetyl}piperazin-1-yl)pyridine-2-carboxylate] | – | – | chromatographic logP [4]: 2.71
CCOC(=O)c1cccc(C2CCN(C(=O)Cn3nc(C(F)(F)F)cc3C)CC2)n1 [Example 134] | – | 2.74^[b] | –
Cc1cc(C(F)(F)F)nn1CC(=O)N1CCN(c2cccc(C(=O)NCc3cccs3)n2)CC1 [Example 67] | 2.93 | 2.92 | –
Cc1cc(C(F)(F)F)nn1CC(=O)N1CCN(c2cccc(C(=O)SCc3c(F)cccc3F)n2)CC1 [Example 149] | 4.29 | 4.11 | –
Cc1cc(C(F)(F)F)nn1CC(=O)N1CCC(c2cccc(C(=O)SCc3ccc(Cl)cc3Cl)n2)CC1 [Example 55] | 5.21 | 5.17 | –
CN(C(=O)c1cccc(C2CCN(C(=O)Cn3nc(C(F)F)cc3C(F)F)CC2)n1)C1CCCCC1 [Example 78] | 3.08 | 3.02 | –
Cc1cc(C(F)(F)F)nn1CC(=O)N1CCN(c2cccc(C(=O)NCc3ccccc3Cl)n2)CC1 [Example 65] | 3.36 | 3.34 | –
Cc1cc(C(F)(F)F)nn1CC(=O)N1CCC(c2cccc(C(=O)Sc3ccccc3)n2)CC1 [Example 62] | 3.95^[b]; 3.95^[c] | 3.95^[b]; 3.95^[c] | –
CN(Cc1ccccn1)C(=O)c1cccc(C2CCN(C(=O)Cn3nc(C(F)F)cc3C(F)F)CC2)n1 [Example 80] | 2.18 | 1.81 | –
Cc1cc(C(F)(F)F)nn1CC(=O)N1CCC(c2cccc(C(=O)OCCCC(F)(F)F)n2)CC1 [Example 6] | – | 3.37^[b] | –
O=C(Sc1ccccc1)c1cccc(N2CCN(C(=O)Cn3nc(C(F)F)cc3C(F)F)CC2)n1 [Example 122] | 3.81 | – | log P [1]: 3.79
Cc1cc(C(F)(F)F)nn1CC(=O)N1CCC(c2cccc(C(=O)NCc3ccccc3Cl)n2)CC1 [Example 23] | 3.52 | 3.49 | –

SMILES | log P [2] | log P [3] | also measured
O=C(NCc1ccccc1Br)c1cccc(C2CCN(C(=O)Cn3nc(C(F)F)cc3C(F)F)CC2)n1 [Example 4] | 3.47 | 3.44 | –
O=C(OCc1c(F)cc(F)cc1F)c1cccc(C2CCN(C(=O)Cn3nc(C(F)F)cc3C(F)F)CC2)n1 [Example 104] | – | 3.57^[b] | –
Cc1cc(C(F)(F)F)nn1CC(=O)N1CCC(c2cccc(C(=O)NCc3cccs3)n2)CC1 [Example 26] | 3.1 | 3.15 | –
O=C(NCc1ccc(Cl)cc1Cl)c1cccc(N2CCN(C(=O)Cn3nc(C(F)F)cc3C(F)F)CC2)n1 [Example 144] | 3.7 | – | log P [1]: 3.68
Cc1ccnc(COC(=O)c2cccc(C3CCN(C(=O)Cn4nc(C(F)(F)F)cc4C)CC3)n2)c1 [Example 50] | – | 3.67^[b] | –
Cc1cc(C(F)(F)F)nn1CC(=O)N1CCC(c2cccc(C(=O)OCc3ccccc3C(F)(F)F)n2)CC1 [Example 45] | – | 3.97^[b] | –
O=C(NCc1ccccc1Cl)c1cccc(C2CCN(C(=O)Cn3nc(C(F)F)cc3C(F)F)CC2)n1 [Example 88] | 3.39 | 3.35 | –
Cc1cc(C(F)(F)F)nn1CC(=O)N1CCC(c2cccc(C(=O)OCc3ccccc3Cl)n2)CC1 [Example 46] | – | 3.84^[b] | –
CCCCCCCNC(=O)c1cccc(C2CCN(C(=O)Cn3nc(C(F)(F)F)cc3C)CC2)n1 [Example 20] | 4.24 | 4.25 | –
Cc1ccccc1COC(=O)c1cccc(C2CCN(C(=O)Cn3nc(C(F)(F)F)cc3C)CC2)n1 [Example 44] | – | 3.8^[b] | –
O=C(OCc1c(F)cccc1F)c1cccc(C2CCN(C(=O)Cn3nc(C(F)F)cc3C(F)F)CC2)n1 [Example 107] | – | 3.44^[b] | –
CCCCCC(C)NC(=O)c1cccc(C2CCN(C(=O)Cn3nc(C(F)(F)F)cc3C)CC2)n1 (racemic) [Example 17] | 4.13 | 4.17 | –
O=C(OCc1ccc(F)cc1F)c1cccc(C2CCN(C(=O)Cn3nc(C(F)F)cc3C(F)F)CC2)n1 [Example 103] | – | 3.54^[b] | –
Cc1cc(C(F)(F)F)nn1CC(=O)N1CCC(c2cccc(C(=O)OC3CCCCC3)n2)CC1 [Example 34] | – | 3.9^[b] | –
Cc1cc(C(F)(F)F)nn1CC(=O)N1CCC(c2cccc(C(=O)Nc3c(F)cccc3F)n2)CC1 [Example 28] | 3.15 | 3.13 | –
CC(C)(C)OC(=O)N1CCC(O)(c2cccc(Br)n2)CC1 [tert-Butyl 4-(6-bromopyridin-2-yl)-4-hydroxypiperidine-1-carboxylate] | – | – | chromatographic logP [4]: 3.05
O=C(NCc1ccccn1)c1cccc(C2CCN(C(=O)Cn3nc(C(F)F)cc3C(F)F)CC2)n1 [Example 90] | 2.37 | 1.83 | –
CN(Cc1ccc(Cl)cc1Cl)C(=O)c1cccc(C2CCN(C(=O)Cn3nc(C(F)F)cc3C(F)F)CC2)n1 [Example 79] | 3.73 | 3.66 | –
